Measurements reported in patent US6461997B1, “Triazole sulfones having herbicidal activity” (Monsanto Technology LLC, priority 1999, dated 2002).

Legend:
[1] = test system: AEGCY (jointed goatgrass); experiment: Post-emergence herbicidal activity, cool season; type: in vivo, Aegilops cylindrica; details: abraded plants sprayed at 300, 100, 30 and 10 g/ha; about 14 days after treatment
Procedure, shortened: (§1)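 GR80 values derive from percent growth inhibition scored approximately 14 days post-spray against abraded, unsprayed controls under an 18/13 °C regime. Foliar application to sandblast-abraded plants used rates of 300, 100, 30 and 10 g/ha in 50:50 acetone/water at 3,100 l/ha.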

STEME (common chickweed) = experiment: Pre-emergence herbicidal activity, cool season; type: in vivo, Stellaria media; details: lowest tested rate with 80% or greater inhibition; rates 300, 100, 30, 10 g/ha; about 14 days
Procedure, shortened: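 GR80 values derive from percent inhibition relative to untreated plants, read roughly 14 days after sowing and pre-emergence soil-surface treatment (compound in 50:50 acetone/water; rates typically 10, 30, 100, 300 g/ha). Warm-season weeds grew at 30/21° C day/night, cool-season ones at 18/13° C; an asterisk marks activity without reaching 80% at the highest rate.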

LOLMG (annual ryegrass) = experiment: Post-emergence herbicidal activity, cool season; type: in vivo, Lolium multiflorum; details: abraded plants sprayed at 300, 100, 30 and 10 g/ha; about 14 days after treatment
Procedure, shortened: as §1

SETFA (giant foxtail) = experiment: Pre-plant incorporated (PPI) herbicidal activity, warm season; type: in vivo, Setaria faberi; details: for inhibition at 10 g/ha / inhibition at 30 g/ha / inhibition at 100 g/ha / inhibition at 300 g/ha / inhibition at 900 g/ha: Setaria faberi, read-out: Percent inhibition SETFA; for inhibition at 10 g/ha / inhibition at 30 g/ha / inhibition at 100 g/ha / inhibition at 300 g/ha / inhibition at 900 g/ha / Percent inhibition SETFA: PPI application; for PPI activity GR80, SETFA: pre-plant incorporated, lowest tested rate with 80% or greater inhibition, about 14 days
Method: (§2) In another set of tests, the pre-plant incorporated (PPI) activity of compounds of this invention was evaluated on the same species as for the pre-emergence tests described above. In the PPI tests the following procedure, designed to simulate PPI application, was used.
(§3) A pre-prepared topsoil mixture (described above) was placed in a pot and compacted to a depth of 1.0 to 1.25 cm from the top of the pot. Seeds of each of several monocotyledonous and dicotyledonous annual plant species were placed on top of the soil. A sufficient quantity of soil to cover the seeds and level fill the pot was weighed into an open container. A known amount of the test compound was dissolved or suspended in an organic solvent and applied by spraying to this cover soil. The cover soil was thoroughly mixed to distribute the test compound throughout the cover soil, and was then applied as a cover layer over the seeds. Untreated soil was used as a cover layer for control pots. After treatment the plants were placed in a greenhouse where they received 0.64 cm of overhead irrigation. All subsequent watering consisted of a light overhead mist and/or subirrigation as needed for germination and growth. Tables 9 and 10 below relate to warm season plant species which were placed after pre-emergence treatment in a greenhouse with a 30/21° C. day/night temperature regime. Tables 11 and 12 below relates to cool season plant species placed after pre-emergence treatment in a greenhouse or growth chamber with an 18/13° C. day/night temperature regime. Only the compounds of Examples 1, 6, 8, 11, 13 and 15-20 were included in PPI tests.
(§4) Approximately 14 days after planting and treating, the plants were observed and herbicidal efficacy recorded as percent inhibition by comparison with untreated plants.

ECHCG (barnyardgrass) = experiment: as above; type: in vivo, Echinochloa crus-galli; details: for inhibition at 10 g/ha / inhibition at 30 g/ha / inhibition at 100 g/ha / inhibition at 300 g/ha / inhibition at 900 g/ha: Echinochloa crus-galli, read-out: Percent inhibition ECHCG; for inhibition at 10 g/ha / inhibition at 30 g/ha / inhibition at 100 g/ha / inhibition at 300 g/ha / inhibition at 900 g/ha / Percent inhibition ECHCG: PPI application; for PPI activity GR80, ECHCG: pre-plant incorporated, lowest tested rate with 80% or greater inhibition, about 14 days
Method: as §2, §3, §4

XANST (cocklebur) = experiment: as above; type: in vivo, Xanthium strumarium; details: PPI application; for inhibition at 10 g/ha / inhibition at 30 g/ha / inhibition at 100 g/ha / inhibition at 300 g/ha / inhibition at 900 g/ha: Xanthium strumarium, read-out: Percent inhibition XANST
Method: as §2, §3, §4

SORVU (shattercane) = experiment: as above; type: in vivo, Sorghum vulgare; details: for inhibition at 10 g/ha / inhibition at 30 g/ha / inhibition at 100 g/ha / inhibition at 300 g/ha / inhibition at 900 g/ha: Sorghum bicolor, read-out: Percent inhibition SORVU; for inhibition at 10 g/ha / inhibition at 30 g/ha / inhibition at 100 g/ha / inhibition at 300 g/ha / inhibition at 900 g/ha / Percent inhibition SORVU: PPI application; for PPI activity GR80, SORVU: pre-plant incorporated, lowest tested rate with 80% or greater inhibition, about 14 days
Method: as §2, §3, §4

[2] = test system: AGRRE (quackgrass (seedling)); experiment: Pre-plant incorporated (PPI) herbicidal activity, cool season; type: in vivo, Elymus repens; details: for inhibition at 10 g/ha / inhibition at 30 g/ha / inhibition at 100 g/ha / inhibition at 300 g/ha / inhibition at 900 g/ha: Elymus repens, read-out: Percent inhibition AGRRE; for inhibition at 10 g/ha / inhibition at 30 g/ha / inhibition at 100 g/ha / inhibition at 300 g/ha / inhibition at 900 g/ha / Percent inhibition AGRRE: weed, PPI application; for PPI activity GR80, AGRRE: pre-plant incorporated, lowest tested rate with 80% or greater inhibition, about 14 days
Method: as §2, §3, §4

C=C(C)CC(F)(F)S(=O)(=O)c1ncn(C(=O)N(CC)CC)n1 [Example 18]
Post-emergence activity GR80, AEGCY [1]: [empty] | Pre-emergence activity GR80, STEME (STEME (common chickweed)): 30 g/ha | Post-emergence activity GR80, LOLMG (LOLMG (annual ryegrass)): [empty] | inhibition at 10 g/ha (SETFA (giant foxtail); 10 g/ha): 100% | inhibition at 30 g/ha (SETFA (giant foxtail); 30 g/ha): 90% | inhibition at 100 g/ha (SETFA (giant foxtail); 100 g/ha): 90% | inhibition at 300 g/ha (SETFA (giant foxtail); 300 g/ha): 100% | inhibition at 900 g/ha (SETFA (giant foxtail); 900 g/ha): 100% | PPI activity GR80, SETFA (SETFA (giant foxtail)): 100 g/ha | inhibition at 10 g/ha (ECHCG (barnyardgrass); 10 g/ha): 30% | inhibition at 30 g/ha (ECHCG (barnyardgrass); 30 g/ha): 100% | inhibition at 100 g/ha (ECHCG (barnyardgrass); 100 g/ha): 100% | inhibition at 300 g/ha (ECHCG (barnyardgrass); 300 g/ha): 100% | inhibition at 900 g/ha (ECHCG (barnyardgrass); 900 g/ha): 100% | PPI activity GR80, ECHCG (ECHCG (barnyardgrass)): 30 g/ha | inhibition at 10 g/ha (XANST (cocklebur); 10 g/ha): 0% | inhibition at 30 g/ha (XANST (cocklebur); 30 g/ha): 0% | inhibition at 100 g/ha (XANST (cocklebur); 100 g/ha): 0% | inhibition at 300 g/ha (XANST (cocklebur)): 0% | inhibition at 900 g/ha (XANST (cocklebur); 900 g/ha): 30% | inhibition at 10 g/ha (SORVU (shattercane); 10 g/ha): 20% | inhibition at 30 g/ha (SORVU (shattercane); 30 g/ha): 50% | inhibition at 100 g/ha (SORVU (shattercane); 100 g/ha): 50% | inhibition at 300 g/ha (SORVU (shattercane); 300 g/ha): 100% | inhibition at 900 g/ha (SORVU (shattercane); 900 g/ha): 100% | PPI activity GR80, SORVU (SORVU (shattercane)): 100 g/ha | inhibition at 10 g/ha ([2]; 10 g/ha): 0% | inhibition at 30 g/ha ([2]; 30 g/ha): 30% | inhibition at 100 g/ha ([2]; 100 g/ha): 20% | inhibition at 300 g/ha ([2]; 300 g/ha): 20% | inhibition at 900 g/ha ([2]; 900 g/ha): 80% | PPI activity GR80, AGRRE [2]: 100 g/ha

C=C(Br)CC(F)(F)S(=O)(=O)c1ncn(C(=O)N(CC)CC)n1 [Example 19]
Post-emergence activity GR80, AEGCY [1]: [empty] | Pre-emergence activity GR80, STEME (STEME (common chickweed)): 10 g/ha | Post-emergence activity GR80, LOLMG (LOLMG (annual ryegrass)): [empty] | inhibition at 10 g/ha (SETFA (giant foxtail); 10 g/ha): 90% | inhibition at 30 g/ha (SETFA (giant foxtail); 30 g/ha): 100% | inhibition at 100 g/ha (SETFA (giant foxtail); 100 g/ha): 90% | inhibition at 300 g/ha (SETFA (giant foxtail); 300 g/ha): 100% | inhibition at 900 g/ha (SETFA (giant foxtail); 900 g/ha): 100% | PPI activity GR80, SETFA (SETFA (giant foxtail)): 30 g/ha | inhibition at 10 g/ha (ECHCG (barnyardgrass); 10 g/ha): 20% | inhibition at 30 g/ha (ECHCG (barnyardgrass); 30 g/ha): 20% | inhibition at 100 g/ha (ECHCG (barnyardgrass); 100 g/ha): 100% | inhibition at 300 g/ha (ECHCG (barnyardgrass); 300 g/ha): 100% | inhibition at 900 g/ha (ECHCG (barnyardgrass); 900 g/ha): 100% | PPI activity GR80, ECHCG (ECHCG (barnyardgrass)): 30 g/ha | inhibition at 10 g/ha (XANST (cocklebur); 10 g/ha): 0% | inhibition at 30 g/ha (XANST (cocklebur); 30 g/ha): 0% | inhibition at 100 g/ha (XANST (cocklebur); 100 g/ha): 0% | inhibition at 300 g/ha (XANST (cocklebur)): 0% | inhibition at 900 g/ha (XANST (cocklebur); 900 g/ha): 90% | inhibition at 10 g/ha (SORVU (shattercane); 10 g/ha): 30% | inhibition at 30 g/ha (SORVU (shattercane); 30 g/ha): 50% | inhibition at 100 g/ha (SORVU (shattercane); 100 g/ha): 65% | inhibition at 300 g/ha (SORVU (shattercane); 300 g/ha): 100% | inhibition at 900 g/ha (SORVU (shattercane); 900 g/ha): 100% | PPI activity GR80, SORVU (SORVU (shattercane)): 300 g/ha | inhibition at 10 g/ha ([2]; 10 g/ha): 0% | inhibition at 30 g/ha ([2]; 30 g/ha): 0% | inhibition at 100 g/ha ([2]; 100 g/ha): 10% | inhibition at 300 g/ha ([2]; 300 g/ha): 20% | inhibition at 900 g/ha ([2]; 900 g/ha): 80% | PPI activity GR80, AGRRE [2]: 100 g/ha

C=C(CC(F)(F)S(=O)(=O)c1ncn(C(=O)N(CC)CC)n1)C[Si](C)(C)C [Example 20]
Post-emergence activity GR80, AEGCY [1]: [empty] | Pre-emergence activity GR80, STEME (STEME (common chickweed)): [empty] | Post-emergence activity GR80, LOLMG (LOLMG (annual ryegrass)): [empty] | Percent inhibition SETFA (SETFA (giant foxtail); 10 g/ha): 0% | Percent inhibition SETFA (SETFA (giant foxtail); 30 g/ha): 70% | Percent inhibition SETFA (SETFA (giant foxtail); 100 g/ha): 99% | Percent inhibition SETFA (SETFA (giant foxtail); 300 g/ha): 90% | Percent inhibition SETFA (SETFA (giant foxtail); 900 g/ha): 100% | PPI activity GR80, SETFA (SETFA (giant foxtail)): 100 g/ha | Percent inhibition ECHCG (ECHCG (barnyardgrass); 10 g/ha): 0% | Percent inhibition ECHCG (ECHCG (barnyardgrass); 30 g/ha): 0% | Percent inhibition ECHCG (ECHCG (barnyardgrass); 100 g/ha): 20% | Percent inhibition ECHCG (ECHCG (barnyardgrass); 300 g/ha): 70% | Percent inhibition ECHCG (ECHCG (barnyardgrass); 900 g/ha): 100% | PPI activity GR80, ECHCG (ECHCG (barnyardgrass)): 300 g/ha | Percent inhibition XANST (XANST (cocklebur); 10 g/ha): 0% | Percent inhibition XANST (XANST (cocklebur); 30 g/ha): 0% | Percent inhibition XANST (XANST (cocklebur); 100 g/ha): 0% | Percent inhibition XANST (XANST (cocklebur); 900 g/ha): 50% | Percent inhibition SORVU (SORVU (shattercane); 10 g/ha): 0% | Percent inhibition SORVU (SORVU (shattercane); 30 g/ha): 0% | Percent inhibition SORVU (SORVU (shattercane); 100 g/ha): 30% | Percent inhibition SORVU (SORVU (shattercane); 300 g/ha): 40% | Percent inhibition SORVU (SORVU (shattercane); 900 g/ha): 100% | PPI activity GR80, SORVU (SORVU (shattercane)): * (activity observed, at least at highest rate, but <80% inhibition) | PPI activity GR80, AGRRE [2]: 300 g/ha | Percent inhibition AGRRE ([2]; 10 g/ha): 0% | Percent inhibition AGRRE ([2]; 30 g/ha): 10% | Percent inhibition AGRRE ([2]; 100 g/ha): 65% | Percent inhibition AGRRE ([2]; 300 g/ha): 40% | Percent inhibition AGRRE ([2]; 900 g/ha): 80%
